Laboratory results from ChEMBL document CHEMBL4842385, “Indirubin Derivatives as Dual Inhibitors Targeting Cyclin-Dependent Kinase and Histone Deacetylase for Treating Cancer” (J Med Chem, 2021).
Activity calls are given as the source filed them. The calls are words filed in the database; no cut-off is given here.

Assays:
[1] = system: A549; experiment: Antitumor activity against human A549 cells xenografted in BALB/c nude mouse assessed as tumor growth inhibition at 50 mg/kg, iv administered for 21 consecutive days relative to control; type: functional; details: 504 h, time 21 day, read-out: TGI
[2] = Toxicity in iv dosed BALB/c nude mouse assessed as maximum tolerated dose administered once daily for 5 consecutive days; type: organism-based; details: in vivo, time 5 day
[3] = system: Mus musculus; experiment: In vivo inhibition of CDK2/4/6 in BALB/c nude mouse xenografted with human A549 cells assessed as reduction in Rb phosphorylation at 25 to 50 mg/kg, iv administered for 21 consecutive days by immunohistochemical analysis; type: functional, organism-based; details: dose 25-50 mg/kg
[4] = molecular target: T1, Protein deacetylase HDAC6 (Homo sapiens) (UniProt Q9UBN7); experiment: Inhibition of HDAC6 in human A549 cells assessed as increase in alpha tubulin acetylation at 10 uM incubated for 24 hrs followed by compound washout by DAPI staining based immunofluorescence assay; type: cell-based
T1 sequence (whole entry): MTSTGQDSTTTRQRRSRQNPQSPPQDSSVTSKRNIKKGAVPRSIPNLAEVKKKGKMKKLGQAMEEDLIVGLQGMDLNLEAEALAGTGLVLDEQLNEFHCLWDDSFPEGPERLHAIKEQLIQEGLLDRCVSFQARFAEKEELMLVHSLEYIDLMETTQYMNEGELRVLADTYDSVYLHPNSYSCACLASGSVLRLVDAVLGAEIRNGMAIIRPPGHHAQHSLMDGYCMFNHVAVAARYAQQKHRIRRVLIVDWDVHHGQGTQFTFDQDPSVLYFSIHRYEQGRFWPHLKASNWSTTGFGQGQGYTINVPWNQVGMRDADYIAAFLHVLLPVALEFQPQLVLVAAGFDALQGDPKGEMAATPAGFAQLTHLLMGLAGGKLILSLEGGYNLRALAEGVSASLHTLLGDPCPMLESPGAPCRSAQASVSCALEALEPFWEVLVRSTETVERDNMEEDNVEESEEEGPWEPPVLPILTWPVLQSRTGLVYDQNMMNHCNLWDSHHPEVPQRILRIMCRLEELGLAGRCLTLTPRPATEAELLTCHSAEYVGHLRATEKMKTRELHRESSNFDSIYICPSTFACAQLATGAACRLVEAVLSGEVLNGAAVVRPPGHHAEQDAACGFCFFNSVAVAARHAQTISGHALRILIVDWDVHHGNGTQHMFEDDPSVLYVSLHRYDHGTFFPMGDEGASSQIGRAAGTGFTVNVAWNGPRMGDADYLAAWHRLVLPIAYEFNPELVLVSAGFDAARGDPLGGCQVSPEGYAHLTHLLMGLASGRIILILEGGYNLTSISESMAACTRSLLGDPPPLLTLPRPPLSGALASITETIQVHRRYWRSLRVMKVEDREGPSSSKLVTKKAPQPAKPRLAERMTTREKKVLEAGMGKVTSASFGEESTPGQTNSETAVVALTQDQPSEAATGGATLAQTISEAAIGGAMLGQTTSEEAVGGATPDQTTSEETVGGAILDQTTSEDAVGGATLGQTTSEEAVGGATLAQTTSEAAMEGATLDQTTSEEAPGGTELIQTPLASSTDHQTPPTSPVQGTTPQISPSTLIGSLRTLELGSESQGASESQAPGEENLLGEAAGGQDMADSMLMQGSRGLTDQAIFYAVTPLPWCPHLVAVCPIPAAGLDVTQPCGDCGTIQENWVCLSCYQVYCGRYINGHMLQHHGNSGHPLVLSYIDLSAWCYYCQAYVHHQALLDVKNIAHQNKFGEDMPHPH

[5] = Toxicity in BALB/c nude mouse xenografted with human A549 cells assessed as body weight loss at 25 to 50 mg/kg, iv administered for 21 consecutive days; type: organism-based; details: in vivo, 504 h, dose 25-50 mg/kg, time 21 day
[6] = molecular target: T1, Protein deacetylase HDAC6 (Homo sapiens); experiment: Inhibition of HDAC6 in human K562 cells assessed as accumulation of acetylation of […] at 1 to 10 uM measured after 48 hrs by Western blot analysis; type: cell-based; details: dose 1-10 µM
[7] = system: A549; experiment: Induction of apoptosis in human A549 cells assessed as downregulation of […] protein measured after 48 hrs by Western blot analysis; type: functional, cell-based; details: dose 1-10 µM
[8] = molecular target: T1, Protein deacetylase HDAC6 (Homo sapiens); experiment: Inhibition of HDAC6 in human MCF7 cells assessed as accumulation of acetylation of H4 at 1 to 10 uM measured after 48 hrs by Western blot analysis; type: cell-based; details: dose 1-10 µM
[9] = molecular target: T1, Protein deacetylase HDAC6 (Homo sapiens); experiment: Inhibition of HDAC6 in human MCF7 cells assessed as accumulation of acetylation of H3 at 1 to 10 uM measured after 48 hrs by Western blot analysis; type: cell-based; details: dose 1-10 µM
[10] = system: A549; experiment: Induction of apoptosis in human A549 cells measured after 48 hrs by Annexin-V/FITC-propidium iodide staining based flow cytometry analysis; type: functional, cell-based; details: dose 2.5-10 µM
[11] = system: A549; experiment: Induction of apoptosis in human A549 cells assessed as increase in sum of early and late apoptotic cells at 2.5 to 10 uM measured after 48 hrs by Annexin-V/FITC-propidium iodide staining based flow cytometry analysis; type: functional, cell-based; details: dose 2.5-10 µM
[12] = molecular target: T1, Protein deacetylase HDAC6 (Homo sapiens); experiment: Inhibition of HDAC6 in human K562 cells assessed as accumulation of acetylation of H3 at 1 to 10 uM measured after 48 hrs by Western blot analysis; type: cell-based; details: dose 1-10 µM
[13] = system: K562; experiment: Induction of apoptosis in human K562 cells measured after 48 hrs by Annexin-V/FITC-propidium iodide staining based flow cytometry analysis; type: functional, cell-based; details: dose 2.5-10 µM
[14] = molecular target: T1, Protein deacetylase HDAC6 (Homo sapiens); experiment: Inhibition of HDAC6 in human MCF7 cells assessed as increase in alpha tubulin acetylation measured after 48 hrs by Western blot analysis; type: cell-based; details: dose 1-10 µM
[15] = system: A549; experiment: Antitumor activity against human A549 cells xenografted in BALB/c nude mouse assessed as reduction in tumor volume at 0.75 to 1.5 mg, IT (intratumoral) administered for 21 consecutive days; type: functional, cell-based; details: dose 0.75-1.5 mg, time 21.0 day
[16] = Toxicity in BALB/c nude mouse xenografted with human A549 cells assessed as adverse effect at 25 to 50 mg/kg, iv administered for 21 consecutive days; type: organism-based; details: in vivo, 504 h, dose 25-50 mg/kg, time 21 day
[17] = system: HeLa; experiment: Potency index, ratio of SAHA IC50 to test compound IC50 for antiproliferative activity against human HeLa cells assessed as cell growth inhibition measured after 48 hrs by CCK8 assay; type: functional
[18] = system: MCF7; experiment: Cycle arrest in human MCF7 cells assessed as increase in cell population at S phase measured after 24 hrs by propidium iodide/RNase staining based flow cytometry; type: functional; details: dose 2.5-10 µM
[19] = system: MCF7; experiment: Induction of apoptosis in human MCF7 cells assessed as increase in sum of early and late apoptotic cells at 2.5 to 10 uM measured after 48 hrs by Annexin-V/FITC-propidium iodide staining based flow cytometry analysis; type: functional, cell-based; details: dose 2.5-10 µM
[20] = system: A549; experiment: Antitumor activity against human A549 cells xenografted in BALB/c nude mouse assessed as tumor growth inhibition at 25 mg/kg, iv administered for 21 consecutive days relative to control; type: functional; details: 504 h, time 21 day, read-out: TGI
[21] = molecular target: T1, Protein deacetylase HDAC6 (Homo sapiens); experiment: Inhibition of HDAC6 in human A549 cells assessed as accumulation of acetylation of H4 at 1 to 10 uM measured after 48 hrs by Western blot analysis; type: cell-based; details: dose 1-10 µM

O=C(CCCO/N=C1/C(=C2/C(=O)Nc3ccccc32)Nc2ccccc21)NO
inhibition in vivo at 50 mg/kg [1]: 66.6% | MTD at 120 h [2]: ≤ 200 mg/kg | inhibition [3]: Active | inhibition [4]: Active | Activity [5]: Non-Toxic | inhibition [6]: inactive | Activity [7]: Dose-Dependent Effect | inhibition [8]: inactive | inhibition [9]: inactive | Activity [10]: Dose-Dependent Effect | Activity [11]: Active | inhibition [12]: inactive | Activity [13]: Dose-Dependent Effect | inhibition [14]: Dose-Dependent Effect | Activity [15]: Active | Activity [16]: Non-Toxic | Ratio IC50 [17]: 3 | Activity [18]: Dose-Dependent Effect | Activity [19]: Active | inhibition in vivo at 25 mg/kg [20]: 43.2% | inhibition [21]: inactive
